Measured values from US5177078A, “Piperazine derivatives” (John Wyeth & Brother Limited, priority 1990, dated 1993).
pIC50: −log10 of the molar value.

Experiments:
5-HT1A receptor [1] = molecular target: T1, 5-HT1A receptor (Rattus norvegicus, UniProt P19327); assay: 5-HT1A receptor binding activity in rat hippocampal membrane homogenate; settings: method of Alexander and Wood
T1 construct: syndrome in the rat; from tissue; host or cells: living rat (endogenous receptor of the central nervous system)
T1 sequence (P19327 1-422): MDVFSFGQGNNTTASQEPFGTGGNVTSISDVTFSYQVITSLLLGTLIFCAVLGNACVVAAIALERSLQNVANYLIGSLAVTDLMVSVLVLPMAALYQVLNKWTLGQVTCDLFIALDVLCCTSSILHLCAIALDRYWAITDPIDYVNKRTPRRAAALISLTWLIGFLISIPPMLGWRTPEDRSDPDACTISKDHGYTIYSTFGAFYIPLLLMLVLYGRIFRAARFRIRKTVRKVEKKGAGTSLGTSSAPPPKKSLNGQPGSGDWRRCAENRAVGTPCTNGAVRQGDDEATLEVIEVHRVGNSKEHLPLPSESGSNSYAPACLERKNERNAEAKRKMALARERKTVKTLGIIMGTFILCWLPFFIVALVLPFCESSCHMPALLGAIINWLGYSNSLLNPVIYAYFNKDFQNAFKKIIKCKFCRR
Procedure: The compounds of the invention are tested for 5-HT1A receptor binding activity in rat hippocampal membrane homogenate by the method of B S Alexander and M D Wood, J Pharm Pharmacol, 1988, 40, 888-891.

5-HT1A receptor [2] = molecular target: T1, 5-HT1A receptor; assay: antagonism of 8-OH DPAT syndrome in the rat (5-HT1A receptor antagonism activity); type: in vivo
Procedure: The compounds are tested for 5-HT1A receptor antagonism activity in a test involving the antagonism of 8-hydroxy-2-(di-n-propylamino)-tetralin (8-OH DPAT) syndrome in the rat. (R,S)-1-(2-Methoxyphenyl)-4-[2-(IH-imidazol-1-yl) -2-(phenyl)ethylpiperazine had MED of 1 mg/kg subcut and 10 mg/kg p.o when tested in this procedure.

SMILES: COc1ccccc1N1CCN(CC(c2ccccc2)n2ccnc2)CC1 (stereo not drawn) [Example 1, 1-(2-Methoxyphenyl)-4-[2-(1H-imidazol-1-yl)-2-(phenyl)ethyl]piperazine]
- pIC50 (5-HT1A receptor [1]): 7.80
- MED (5-HT1A receptor [2]; p.o): 10 mg/kg
- MED (5-HT1A receptor [2]; subcut): 1 mg/kg
